{"source": "patent EP0055702B1", "about": "“Antithrombotic treatment” (priority 1980, dated 1982)", "key": {"[1]": {"tested_on": "human, rabbit and rat plasma", "experiment": "PT (prothrombin time) in plasma in vitro, Example 3", "format": "biochemical", "details": "for PT (seconds) Exp. 1 A / PT (seconds) Exp.2 A: active agent 0.5/ml, control; for prolongation of PT: 0.5 mg/ml, human, rabbit and rat plasma in vitro, dose-related", "description": "(§1) Sodium, potassium and ammonium bisulphites are found to prolong PT and PTT in a dose-related fashion.\n(§2) The evaluation procedure used is that described in \"Human Blood Coagulation, Haemostasis and Thrombosis\", edited by Rosemary Biggs, published by Blackwell Scientific Publications, Oxford, England (2nd Edition), pages 670-705, 1976."}, "[2]": {"tested_on": "human, rabbit and rat plasma", "experiment": "PTT (partial thromboplastin time) in plasma in vitro, Example 3", "format": "biochemical", "details": "for PTT (seconds) Exp. 1 A / PTT (seconds) Exp. 2 A: active agent 0.5/ml, control; for prolongation of PTT: 0.5 mg/ml, human, rabbit and rat plasma in vitro, dose-related", "description": "as §1, §2"}, "[3]": {"experiment": "PT of coded and various agents, Example 6", "format": "biochemical", "description": "(§3) A variety of agents were coded and evaluated under a code designation. Among these compounds, thiouracil, mercaptosuccinic acid, thiosemicarbazide, phenothiazine and sodium thiosulphate were included, so as to compare sodium bisulphite with certain compounds mentioned in USP 4,148,855.\n(§4) After determination of PT and PTT values, the coded compounds were decoded.\n(§5) The results are shown in Table V, where mean values of 5 replications in each case are reported. […] This procedure was repeated with some additional compounds on two different days using a different control on each day."}, "[4]": {"experiment": "PTT of coded and various agents, Example 6", "format": "biochemical", "details": "for PTT: Table V, coded agents 0.5 mg/ml, Control 43.38", "description": "as §3, §4, §5"}, "[5]": {"tested_on": "celite-fibrinogen suspension", "details": "Chao, cited from earlier work"}, "[6]": {"tested_on": "platelet-fibrinogen preparations", "details": "10 to 50 mM; Chao; cited from earlier work"}, "dog plasma": {"tested_on": "dog plasma", "details": "10 mM, Elias; cited from earlier work"}, "thrombin": {"tested_on": "thrombin", "details": "Elias; cited from earlier work"}, "[7]": {"details": "rabbits; cited from earlier work"}, "blood coagulation time": {"tested_on": "blood coagulation time", "details": "10 mM; Kikugawa; cited from earlier work"}, "[8]": {"details": "Table V, coded agents 0.5 mg/ml, Control 12.92"}, "[9]": {"details": "coded compounds after decoding, in vitro"}}, "note": "Where two headings read alike, the source gives them in different places.", "data": [{"compound": "Sodium sulphite", "values": [{"measurement": "PT (seconds) Exp. 1 A", "setting": "[1]; Test sequence A", "value": 16.2, "unit": "s"}, {"measurement": "PT (seconds) Exp.2 A", "setting": "[1]; Test sequence A", "value": 17.7, "unit": "s"}, {"measurement": "PT (seconds) Exp. 1 A", "setting": "[1]; Test sequence B", "value": 16.8, "unit": "s"}, {"measurement": "PT (seconds) Exp.2 A", "setting": "[1]; Test sequence B", "value": 17.7, "unit": "s"}, {"measurement": "PTT (seconds) Exp. 1 A", "setting": "[2]; Test sequence A", "value": 66.1, "unit": "s"}, {"measurement": "PTT (seconds) Exp. 2 A", "setting": "[2]; Test sequence A", "value": 80.7, "unit": "s"}, {"measurement": "PTT (seconds) Exp. 1 A", "setting": "[2]; Test sequence B", "value": 74.8, "unit": "s"}, {"measurement": "PTT (seconds) Exp. 2 A", "setting": "[2]; Test sequence B", "value": 82.1, "unit": "s"}, {"measurement": "PT", "setting": "[3]", "value": 16.38, "unit": "s"}, {"measurement": "PT", "setting": "[3]; [8]", "value": 16.14, "unit": "s"}, {"measurement": "PTT", "setting": "[4]", "value": 64.62, "unit": "s"}, {"measurement": "inhibition of thrombin-induced light transmission increase (LTI)", "setting": "[5]; 10 mM", "value": "partial inhibition"}, {"measurement": "inhibition of thrombin-induced light transmission increase (LTI)", "setting": "[5]; 50 mM", "value": "complete inhibition"}, {"measurement": "effect on the first wave of platelet-fibrinogen preparations", "setting": "[6]", "value": "no effect"}, {"measurement": "increase of thrombin time", "setting": "dog plasma", "value": "about 38%"}, {"measurement": "inhibitory effect on TAME esterolytic activity of thrombin", "setting": "thrombin", "value": "No inhibitory effect"}]}, {"compound": "O=S([O-])S(=O)(=O)[O-].[K+].[K+]", "note": "[Potassium metabisulphite]", "values": [{"measurement": "PT (seconds) Exp.2 A", "setting": "[1]; Test sequence A", "value": 22.0, "unit": "s"}]}, {"compound": "potassium bisulphite", "values": [{"measurement": "prolongation of PT", "setting": "[1]", "value": "significantly prolong"}, {"measurement": "prolongation of PTT", "setting": "[2]", "value": "significantly prolong"}]}, {"compound": "O=S([O-])S(=O)(=O)[O-].[Na+].[Na+]", "note": "[Sodium metabisulphite]", "values": [{"measurement": "PTT (seconds) Exp. 2 A", "setting": "[2]; Test sequence A", "value": 80.3, "unit": "s"}]}, {"compound": "O=S(=O)(O)CO", "note": "[SO3, Sodium formaldehyde bisulphite, reference compound]", "values": [{"measurement": "effect on PT values", "setting": "[3]; [9]", "value": "effected in increasing PT and PTT values"}, {"measurement": "effect on PTT values", "setting": "[4]; [9]", "value": "effected in increasing PT and PTT values"}]}, {"compound": "sodium bisulphite/sulphite", "values": [{"measurement": "LD50", "setting": "[7]", "value": 65, "unit": "mg/kg"}, {"measurement": "effect on blood coagulation time", "setting": "blood coagulation time", "value": "no effect"}]}, {"compound": "Dihydroxymalcic acid 2 H2O [Solution A3, reference compound]", "values": [{"measurement": "PT", "setting": "[3]; [8]", "value": 14.95, "unit": "s"}, {"measurement": "PTT", "setting": "[4]", "value": 53.00, "unit": "s"}]}, {"compound": "ammonium bisulphite", "values": [{"measurement": "prolongation of PT", "setting": "[1]", "value": "significantly prolong"}, {"measurement": "prolongation of PTT", "setting": "[2]", "value": "significantly prolong"}]}, {"compound": "Sodium thiosulphate [SI6, reference compound]", "values": [{"measurement": "PT", "setting": "[3]", "value": 13.5, "unit": "s"}]}, {"compound": "Ammonium sulphite", "values": [{"measurement": "PT (seconds) Exp. 1 A", "setting": "[1]; Test sequence A", "value": 14.7, "unit": "s"}, {"measurement": "PT (seconds) Exp.2 A", "setting": "[1]; Test sequence A", "value": 16.9, "unit": "s"}, {"measurement": "PTT (seconds) Exp. 1 A", "setting": "[2]; Test sequence A", "value": 56.5, "unit": "s"}, {"measurement": "PTT (seconds) Exp. 2 A", "setting": "[2]; Test sequence A", "value": 65.2, "unit": "s"}, {"measurement": "PT", "setting": "[3]", "value": 16.08, "unit": "s"}]}]}
